Results on 22 compounds are retold here after patent US7601716B2, “Pyridopyrazines and derivatives thereof as ALK and c-Met inhibitors” (Cephalon, Inc., priority 2006, dated 2009).

The target of assay [1] is baculovirus-expressed ALK (Homo sapiens, UniProt Q9UM73). Put plainly: ALK Kinase Assay (ELISA/TRF, PLC-γ substrate). Further: 1 µM ATP (Km level). Format: biochemical. Conditions: read-out: ALK Kinase Inhibition (IC50). In a few lines: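 GST-PLC-γ coat 10 μg/mL/TBS; 30 ng/ml ALK, 37° C, 15 min; Eu-PT66 anti-pTyr 1 h 37° C, enhancement, TRF. IC50: % inhib vs log10[cpd], variable-slope sigmoid.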
Chain of baculovirus-expressed ALK (Q9UM73 19-1620): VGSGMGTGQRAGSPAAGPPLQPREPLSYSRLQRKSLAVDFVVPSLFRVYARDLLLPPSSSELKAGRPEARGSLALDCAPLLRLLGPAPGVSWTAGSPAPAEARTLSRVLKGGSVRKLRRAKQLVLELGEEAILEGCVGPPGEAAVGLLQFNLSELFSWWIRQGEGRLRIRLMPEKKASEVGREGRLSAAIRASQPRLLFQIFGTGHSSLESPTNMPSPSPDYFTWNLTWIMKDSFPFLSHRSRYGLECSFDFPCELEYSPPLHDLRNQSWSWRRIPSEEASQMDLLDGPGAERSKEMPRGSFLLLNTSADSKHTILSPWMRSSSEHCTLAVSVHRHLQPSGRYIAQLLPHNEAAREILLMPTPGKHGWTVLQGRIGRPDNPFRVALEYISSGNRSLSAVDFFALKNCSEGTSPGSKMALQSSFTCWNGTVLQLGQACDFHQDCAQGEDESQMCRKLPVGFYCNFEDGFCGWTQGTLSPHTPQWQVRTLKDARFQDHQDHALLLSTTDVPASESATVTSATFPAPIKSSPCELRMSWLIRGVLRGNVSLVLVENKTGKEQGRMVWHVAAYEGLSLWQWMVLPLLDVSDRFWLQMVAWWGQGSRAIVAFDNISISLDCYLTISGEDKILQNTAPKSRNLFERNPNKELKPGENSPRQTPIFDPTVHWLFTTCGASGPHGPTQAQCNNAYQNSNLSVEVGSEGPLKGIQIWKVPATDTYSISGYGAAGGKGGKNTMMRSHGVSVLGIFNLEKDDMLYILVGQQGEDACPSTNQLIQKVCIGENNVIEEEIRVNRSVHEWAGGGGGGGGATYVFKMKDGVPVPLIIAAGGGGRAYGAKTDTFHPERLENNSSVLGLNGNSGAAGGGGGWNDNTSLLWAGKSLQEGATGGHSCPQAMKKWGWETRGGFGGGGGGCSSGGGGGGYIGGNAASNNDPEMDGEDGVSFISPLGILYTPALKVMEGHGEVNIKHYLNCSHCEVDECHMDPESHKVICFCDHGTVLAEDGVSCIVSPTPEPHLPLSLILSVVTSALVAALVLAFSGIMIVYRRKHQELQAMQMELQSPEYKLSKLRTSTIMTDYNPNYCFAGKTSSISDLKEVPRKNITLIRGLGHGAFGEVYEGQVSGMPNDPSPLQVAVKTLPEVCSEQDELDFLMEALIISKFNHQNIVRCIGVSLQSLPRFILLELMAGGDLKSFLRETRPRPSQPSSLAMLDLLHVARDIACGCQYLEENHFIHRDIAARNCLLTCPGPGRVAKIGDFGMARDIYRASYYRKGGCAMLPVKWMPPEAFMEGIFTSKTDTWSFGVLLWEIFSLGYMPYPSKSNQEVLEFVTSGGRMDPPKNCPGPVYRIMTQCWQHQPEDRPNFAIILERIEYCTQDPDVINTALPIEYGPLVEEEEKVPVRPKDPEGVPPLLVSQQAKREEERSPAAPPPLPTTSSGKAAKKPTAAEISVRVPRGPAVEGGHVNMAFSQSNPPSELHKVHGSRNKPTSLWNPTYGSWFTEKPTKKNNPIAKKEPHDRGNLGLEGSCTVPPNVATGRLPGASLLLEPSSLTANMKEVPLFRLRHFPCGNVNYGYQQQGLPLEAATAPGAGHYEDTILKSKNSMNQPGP
On the technique in general: ELISA stands for enzyme-linked immunosorbent assay.

For assay [2], the target named is T1, c-Met (cytoplasmic domain) (Homo sapiens, UniProt P08581).
T1 construct: Reactions were initiated with 30 ng/mL c-Met (cytoplasmic domain, Invitrogen Corporation #PV3143); purchased Invitrogen Corporation PV3143
T1 sequence (P08581 956-1390 limits assumed): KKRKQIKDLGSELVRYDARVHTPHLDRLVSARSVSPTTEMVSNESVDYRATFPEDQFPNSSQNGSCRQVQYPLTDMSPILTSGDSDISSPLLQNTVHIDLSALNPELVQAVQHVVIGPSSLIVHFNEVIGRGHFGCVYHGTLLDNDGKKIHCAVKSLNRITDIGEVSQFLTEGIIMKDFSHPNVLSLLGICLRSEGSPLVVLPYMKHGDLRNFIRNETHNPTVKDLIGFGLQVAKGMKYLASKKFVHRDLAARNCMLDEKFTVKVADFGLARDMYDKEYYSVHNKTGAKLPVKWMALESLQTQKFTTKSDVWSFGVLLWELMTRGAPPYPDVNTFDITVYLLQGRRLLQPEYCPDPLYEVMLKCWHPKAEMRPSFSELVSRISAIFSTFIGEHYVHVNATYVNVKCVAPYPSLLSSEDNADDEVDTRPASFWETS
Put plainly: c-Met Kinase Assay (ELISA/TRF, PLC-γ substrate). Format: biochemical. Conditions: 3 μM ATP (Km level); read-out: c-Met Kinase Inhibition (IC50). The procedure: Example compounds were tested for their ability to inhibit the kinase activity of baculovirus-expressed ALK using a modification of the ELISA protocol reported for trkA in Angeles, T. S. et al., Anal. Biochem. 1996, 236, 49-55, which is incorporated herein by reference in its entirety. Phosphorylation of the substrate, phospholipase C-gamma (PLC-γ) generated as a fusion protein with glutathione S-transferase (GST) as reported in Rotin, D. et al., EMBO J. 1992, 11, 559-567, which is incorporated herein by reference in its entirety, was detected with a europium-labeled anti-phosphotyrosine antibody and measured by time-resolved fluorescence (TRF). Briefly, each 96-well plate was coated with 100 μL/well of 10 μg/mL substrate (phospholipase C-γ) in Tris-buffered saline (TBS). […] The reaction was initiated by adding enzyme (30 ng/ml ALK) and was allowed to proceed at 37° C. for 15 minutes. Detection of the phosphorylated product was performed by adding 100 μl/well of Eu-N1 labeled PT66 antibody (Perkin Elmer # AD0041). Incubation at 37° C. then proceeded for one (1) hour, followed by addition of 100 μL enhancement solution (Wallac #1244-105). The plate was gently agitated and after thirty minutes, the fluorescence of the resulting solution was measured using the EnVision 2100 (or 2102) multilabel plate reader (Perkin Elmer).
Data analysis was performed using ActivityBase (IDBS, Guilford, UK). IC50 values were calculated by plotting percent inhibition versus log10 of the concentration of compound and fitting to the nonlinear regression sigmoidal dose-response (variable slope) equation in XLFit (IDBS, Guilford, UK).
Reactions were initiated with 30 ng/mL c-Met (cytoplasmic domain, Invitrogen Corporation #PV3143).

Molecules are shown by their SMILES. Counter-ions that a name gives are not always drawn.

As to `O=C1CNc2ncc(-c3cccc(C(=O)N4CCC[C@H]4CN4CCCC4)c3)cc2N1Cc1ccccc1` [Example 18, S-1-Benzyl-7-[3-(2-[(pyrrolidin-1-yl)methyl]pyrrolidine-1-carbonyl)phenyl]-3,4-dihydro-1H-pyrido[2,3-b]pyrazin-2-one, trifluoroacetic acid salt], the IC50 in assay [1] lay in the range of 1 to 10 µM; in assay [2], 10 to 100 µM.
For `CN(C)CCNC(=O)c1cccc(-c2cnc3c(c2)N(Cc2ccccc2)C(=O)CN3)c1` [Example 19, 3-(1-Benzyl-2-oxo-1,2,3,4-tetrahydropyrido[2,3-b]pyrazin-7-yl)-N-(2-dimethylamino-ethyl)benzamide, trifluoroacetic acid salt], the IC50 in assay [1] was 1 to 10 µM; in assay [2] it was 10 to 100 µM.
In the same order, the values of `O=C(c1cccc(-c2cnc3c(c2)N(Cc2ccccc2)C(=O)CN3)c1)N1CCCC1` [Example 20, 1-Benzyl-7-[3-(pyrrolidine-1-carbonyl)phenyl]-3,4-dihydro-1H-pyrido[2,3-b]pyrazin-2-one] are 1 to 10 µM and 10 to 100 µM.
With `CCNC(=O)c1cccc(-c2cnc3c(c2)N(Cc2ccccc2)C(=O)CN3)c1` [Example 22, 3-(1-Benzyl-2-oxo-1,2,3,4-tetrahydropyrido[2,3-b]pyrazin-7-yl)-N-ethyl-benzamide], the IC50 in assay [1] and in assay [2] was > 100 µM in each case.
`CS(=O)(=O)c1ccc(-c2cnc3c(c2)N(Cc2ccccc2)C(=O)CN3)cc1` [Example 24, 1-Benzyl-7-(4-methanesulfonyl-phenyl)-3,4-dihydro-1H-pyrido[2,3-b]pyrazin-2-one]: the IC50 in assay [1] was 1 to 10 µM; in assay [2], > 100 µM.
With `CN1CCN(C(=O)c2ccc(-c3cnc4c(c3)N(Cc3ccccc3)C(=O)CN4)cc2)CC1` [Example 25, 1-Benzyl-7-[4-(4-methylpiperazine-1-carbonyl)phenyl]-3,4-dihydro-1H-pyrido[2,3-b]pyrazin-2-one, trifluoroacetic acid salt], the IC50 in assay [1] fell in the range of 1 to 10 µM; in assay [2], 10 to 100 µM.
Turning to `O=C(c1ccc(-c2cnc3c(c2)N(Cc2ccccc2)C(=O)CN3)cc1)N1CCC(N2CCCC2)CC1` [Example 26, 1-Benzyl-7-[4-(4-(pyrrolidin-1-yl)piperidine-1-carbonyl)phenyl]-3,4-dihydro-1H-pyrido[2,3-b]pyrazin-2-one, trifluoroacetic acid salt], the values for the IC50 in assay [1] and in assay [2] were 1 to 10 µM and 10 to 100 µM, respectively.
For `CCOC(=O)c1ccc(-c2cnc3c(c2)N(Cc2ccccc2)C(=O)CN3)cn1` [Example 29, 5-(1-Benzyl-2-oxo-1,2,3,4-tetrahydropyrido[2,3-b]pyrazin-7-yl)pyridine-2-carboxylic acid ethyl ester], in that order: 0.1 to 1 µM and 10 to 100 µM.
For `O=C(O)c1cccc(-c2cnc3c(c2)N(Cc2ccccc2)C(=O)CN3)c1` [Example 31, 3-(1-Benzyl-2-oxo-1,2,3,4-tetrahydropyrido[2,3-b]pyrazin-7-yl)benzoic acid], in that order: > 100 µM and 10 to 100 µM.
With `c1ccc(CN2CCNc3ncccc32)cc1` [Example 32, 1-Benzyl-1,2,3,4-tetrahydropyrido[2,3-b]pyrazine], the IC50 in assay [1] and in assay [2] was > 100 µM each time.
As to `c1ccc(CN2CCNc3ncc(-c4cccnc4)cc32)cc1` [Example 34, 1-Benzyl-7-pyridin-3-yl-1,2,3,4-tetrahydropyrido[2,3-b]pyrazine], the IC50 in assay [1] was 1 to 10 µM; in assay [2], 10 to 100 µM.
For the compound `O=C1CNc2ncc(-c3ccc(NS(=O)(=O)CCN4CCCC4)cc3)cc2N1Cc1ccccc1` [Example 45, 2-Pyrrolidin-1-yl-ethanesulfonic acid[4-(1-benzyl-2-oxo-1,2,3,4-tetrahydropyrido[2,3-b]pyrazin-7-yl)phenyl]amide, trifluoroacetic acid salt], the figures for the IC50 in assay [1] and in assay [2] were 1 to 10 µM and > 100 µM, respectively.
In the case of `O=C(c1ccccc1)N1CCNc2ncc(-c3ccc(NS(=O)(=O)CCN4CCCC4)cc3)cc21` [Example 46, 2-Pyrrolidin-1-yl-ethanesulfonic acid[4-(1-benzoyl-1,2,3,4-tetrahydropyrido[2,3-b]pyrazin-7-yl)phenyl]amide], the IC50 in assay [1] and in assay [2] was 10 to 100 µM in each case.
For the compound `CN1CCN(CCS(=O)(=O)Nc2ccc(-c3cnc4c(c3)N(C(=O)c3ccccc3)CCN4)cc2)CC1` [Example 47, 2-(4-Methylpiperazin-1-yl)-ethanesulfonic acid[4-(1-benzoyl-1,2,3,4-tetrahydropyrido[2,3-b]pyrazin-7-yl)phenyl]amide], the IC50 in assay [1] and in assay [2] was 10 to 100 µM throughout.
As to `O=C1CNc2ncc(-c3ccc(NS(=O)(=O)CCN4CCC[C@H]4CN4CCCC4)cc3)cc2N1Cc1cc(F)ccc1F` [Example 49], the IC50 in assay [1] is 0.1 to 1 µM; in assay [2], 10 to 100 µM.
For the compound `CN1CCN(C(=O)c2ccc(-c3cnc4c(c3)N(C(=O)c3ccccc3)CCN4)cc2)CC1` [Example 54, {7-[4-(4-Methylpiperazine-1-carbonyl)phenyl]-3,4-dihydro-2H-pyrido[2,3-b]pyrazin-1-yl}phenylmethanone], the results for the IC50 in assay [1] and in assay [2] were > 100 µM and 10 to 100 µM, respectively.
In the case of `O=C1CNc2ncc(-c3ccc(NC(=O)N4CCC[C@H]4CN4CCCC4)cc3)cc2N1Cc1cc(F)ccc1F` [Example 61, (S)-2-[(pyrrolidin-1-yl)methyl]pyrrolidine-1-carboxylic acid{4-[1-(2,5-difluorobenzyl)-2-oxo-1,2,3,4-tetrahydropyrido[2,3-b]pyrazin-7-yl]phenyl}-amide], the concentration for half-maximal inhibition (IC50) in assay [1] fell in the range of 0.1 to 1 µM; in assay [2], 1 to 10 µM.
For `O=C(c1ccc(-c2cnc3c(c2)N(Cc2cc(F)ccc2F)CCN3)cc1)N1CCOCC1` [Example 68, {4-[1-(2,5-Difluorobenzyl)-1,2,3,4-tetrahydropyrido[2,3-b]pyrazin-7-yl]phenyl}-morpholin-4-yl-methanone], in that order: 0.1 to 1 µM and 1 to 10 µM.
Consider `CN1CCN(C(=O)c2cnc3c(c2)N(Cc2cc(F)ccc2F)CCN3)CC1` [Example 79, [1-(2,5-Difluorobenzyl)-1,2,3,4-tetrahydropyrido[2,3-b]pyrazin-7-yl]-(4-methylpiperazin-1-yl)methanone], for which the IC50 in assay [1] was 10 to 100 µM; in assay [2], > 100 µM.
Take `CN1CCN(CCNC(=O)c2cnc3c(c2)N(Cc2cc(F)ccc2F)CCN3)CC1` [Example 80, 1-(2,5-Difluorobenzyl)-1,2,3,4-tetrahydropyrido[2,3-b]pyrazine-7-carboxylic acid[2(4-methylpiperazin-1-yl)ethyl]amide]: the IC50 is 10 to 100 µM in assay [1] and > 100 µM in assay [2].
For `O=C(c1ccc(-c2cnc3c(c2)N(Cc2cc(F)c(F)cc2F)CCN3)cc1)N1CCC[C@H]1CN1CCCC1` [Example 84, ((S)-2-((pyrrolidin-1-yl)methyl)pyrrolidin-1-yl)-{4-[1-(2,4,5-trifluorobenzyl)-1,2,3,4-tetrahydropyrido[2,3-b]pyrazin-7-yl]phenyl}-methanone], in that order: 0.1 to 1 µM and 1 to 10 µM.
On to `CN1CCN(C(=O)c2ccc(-c3cnc4c(c3)N(Cc3cc(F)c(F)cc3F)CCN4)cc2)CC1` [Example 86, (4-Methylpiperazin-1-yl)-{4-[1-(2,4,5-trifluorobenzyl)-1,2,3,4-tetrahydropyrido[2,3-b]pyrazin-7-yl]phenyl}-methanone], for which the IC50 in assay [1] and in assay [2] was 1 to 10 µM in each case.

As usually defined, the IC50 is the concentration needed to halve the response being measured.
